According to PubChem BioAssay AID248 (DTP/NCI, 2004):
Several values for one entry are separate records, joined by “and”; a condition that tells them apart may be missing. Equal entries are not always repeated. Inconclusive results and toxic doses are left out. Rule as the data show it: active = T/C of 150% or more; inactive = T/C below 125%.

Tested on: L1210 leukemia ip in BDF1 mice, survival T/C
Assay: NCI In Vivo Anticancer Drug Screen. Data for tumor model L1210 Leukemia (intraperitoneal) in B6D2F1 (BDF1) mice
Settings: endpoint: mean survival time, higher = longer survival
Procedure, shortened: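 Transplantable tumor model; survival measured in treated vs vehicle control mice. Value = treated/control.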

[1] = dose: 100.0 mg/kg/injection, schedule: Q01DX009 (ip), vehicle: saline sonified
[2] = dose: 100.0 mg/kg/injection, schedule: Q04DX003 (ip), vehicle: Klucel (hydroxypropylcellulose) (HPC)
[3] = dose: 100.0 mg/kg/injection, schedule: Q01DX009 (ip), vehicle: Klucel (hydroxypropylcellulose) (HPC)
[4] = dose: 200.0 mg/kg/injection, schedule: Q01DX009 (ip), vehicle: Klucel (hydroxypropylcellulose) (HPC)
[5] = dose: 200.0 mg/kg/injection, schedule: Q04DX003 (ip), vehicle: Klucel (hydroxypropylcellulose) (HPC)
[6] = dose: 400.0 mg/kg/injection, schedule: Q01DX009 (ip), vehicle: Klucel (hydroxypropylcellulose) (HPC)
[7] = dose: 400.0 mg/kg/injection, schedule: Q04DX003 (ip), vehicle: Klucel (hydroxypropylcellulose) (HPC)
[8] = dose: 100.0 mg/kg/injection, schedule: Q01DX009 (ip), vehicle: saline with Tween-80
[9] = dose: 200.0 mg/kg/injection, schedule: Q01DX009 (ip), vehicle: saline with Tween-80
[10] = dose: 400.0 mg/kg/injection, schedule: Q01DX009 (ip), vehicle: saline with Tween-80
[11] = dose: 100.0 mg/kg/injection, schedule: Q04DX003 (ip), vehicle: saline
[12] = dose: 200.0 mg/kg/injection, schedule: Q04DX003 (ip), vehicle: saline
[13] = dose: 400.0 mg/kg/injection, schedule: Q04DX003 (ip), vehicle: saline

Measured: T/C

OC(CCl)COCC#Cc1ccccc1 (centres undefined)
inactive: [1] 93 % of control | dose: 100.0 mg/kg/injection, schedule: Q04DX003 (ip), vehicle: saline sonified 101 % of control | dose: 200.0 mg/kg/injection, schedule: Q01DX009 (ip), vehicle: saline sonified 96 % of control | dose: 200.0 mg/kg/injection, schedule: Q04DX003 (ip), vehicle: saline sonified 93 % of control | dose: 400.0 mg/kg/injection, schedule: Q01DX009 (ip), vehicle: saline sonified 93 % of control | dose: 400.0 mg/kg/injection, schedule: Q04DX003 (ip), vehicle: saline sonified 92 % of control

O=C(O)c1cc(=O)[nH]c(=O)[nH]1
inactive: dose: 100.0 mg/kg/injection, schedule: Q04DX002 (ip), vehicle: Klucel (hydroxypropylcellulose) (HPC) 100 % of control

CCC1=[N+](C)C(C)(C)CC(C)O1 (centres undefined)
inactive: dose: 6.25 mg/kg/injection, schedule: Q01DX009 (ip), vehicle: saline 102 % of control | dose: 6.25 mg/kg/injection, schedule: Q04DX003 (ip), vehicle: saline with Tween-80 98 % of control | dose: 12.5 mg/kg/injection, schedule: Q01DX009 (ip), vehicle: saline 102 % of control | dose: 12.5 mg/kg/injection, schedule: Q04DX003 (ip), vehicle: saline with Tween-80 94 % of control | dose: 25.0 mg/kg/injection, schedule: Q01DX009 (ip), vehicle: saline 107 % of control | dose: 25.0 mg/kg/injection, schedule: Q04DX003 (ip), vehicle: saline with Tween-80 94 % of control | dose: 50.0 mg/kg/injection, schedule: Q01DX009 (ip), vehicle: saline 102 % of control | dose: 50.0 mg/kg/injection, schedule: Q04DX003 (ip), vehicle: saline with Tween-80 94 % of control and 95 % of control

CCNCc1cc(Nc2cc(C)nc(/N=C(\N)Nc3ccc(Cl)c(Cl)c3)n2)ccc1OC
inactive: dose: 3.12 mg/kg/injection, schedule: Q01DX009 (ip), vehicle: Klucel (hydroxypropylcellulose) (HPC) 94 % of control | dose: 6.25 mg/kg/injection, schedule: Q01DX009 (ip), vehicle: Klucel (hydroxypropylcellulose) (HPC) 103 % of control | dose: 12.5 mg/kg/injection, schedule: Q01DX009 (ip), vehicle: Klucel (hydroxypropylcellulose) (HPC) 97 % of control | dose: 25.0 mg/kg/injection, schedule: Q04DX003 (ip), vehicle: Klucel (hydroxypropylcellulose) (HPC) 101 % of control | dose: 50.0 mg/kg/injection, schedule: Q04DX003 (ip), vehicle: Klucel (hydroxypropylcellulose) (HPC) 111 % of control | dose: 75.0 mg/kg/injection, schedule: Q01DX001 (ip), vehicle: other 97 % of control | [2] 95 % of control

NCOC(=O)Cc1ccc(Br)cc1
inactive: [3] 98 % of control | [2] 96 % of control | [4] 101 % of control | [5] 101 % of control | [6] 96 % of control | [7] 101 % of control

O=CN1CCCCC1
inactive: dose: 100.0 mg/kg/injection, schedule: Q01DX001 (ip), vehicle: saline 97 % of control | dose: 200.0 mg/kg/injection, schedule: Q01DX001 (ip), vehicle: saline 105 % of control

CC(=O)c1ccc(N=C2C=CC(=O)O2)cc1
inactive: [8] 104 % of control | [9] 105 % of control | [10] 100 % of control

CCC[CH2][Pb]([Cl])([CH2]CCC)[CH2]CCC
inactive: dose: 6.25 mg/kg/injection, schedule: Q01DX009 (ip), vehicle: saline with Tween-80 90 % of control

O=C(O)C1CCCN(C(=O)OCc2ccccc2)C1 (centres undefined)
inactive: dose: 50.0 mg/kg/injection, schedule: Q01DX009 (ip), vehicle: Klucel (hydroxypropylcellulose) (HPC) 97 % of control | [3] 100 % of control | [2] 90 % of control | [4] 97 % of control | [5] 90 % of control | [7] 97 % of control

Cc1cccc(C)c1NC(=O)/C=C\C(=O)O
inactive: [2] 98 % of control | [5] 91 % of control | [7] 94 % of control

CC(C)(C)OOC(=O)c1ccccc1O
inactive: [1] 113 % of control | [11] 106 % of control | [12] 106 % of control | [13] 110 % of control

COC1OC(COC(=O)c2ccccc2)C(OC(=O)c2ccccc2)C(OC(=O)c2ccccc2)C1OC(=O)c1ccccc1 (centres undefined)
inactive: [8] 116 % of control | [9] 107 % of control | [10] 107 % of control

O=C(COc1cc2ccccc2cc1C(=O)O)NCc1ccc(Cl)cc1
inactive: dose: 25.0 mg/kg/injection, schedule: Q04DX003 (ip), vehicle: saline 96 % of control | dose: 50.0 mg/kg/injection, schedule: Q04DX003 (ip), vehicle: saline 100 % of control | [11] 101 % of control | [12] 101 % of control

O=C(COc1ccc([N+](=O)[O-])cc1Cl)N1CCOCC1
inactive: [3] 103 % of control | [2] 98 % of control | [4] 97 % of control | [5] 103 % of control | [6] 101 % of control | [7] 95 % of control

CC(O)Cc1c(Cc2ccccc2)nc(N)[nH]c1=O (centres undefined)
inactive: [11] 96 % of control | [12] 97 % of control | [13] 92 % of control

COc1cc2c(cc1OC)-c1ncnc(-c3ccccc3)c1C2
inactive: [2] 95 % of control | [5] 94 % of control | [7] 101 % of control

Cc1c(CC(=O)O)c(=O)n(-c2ccccc2)n1C
inactive: dose: 75.0 mg/kg/injection, schedule: Q04DX003 (ip), vehicle: Klucel (hydroxypropylcellulose) (HPC) 105 % of control | dose: 150.0 mg/kg/injection, schedule: Q04DX003 (ip), vehicle: Klucel (hydroxypropylcellulose) (HPC) 101 % of control | dose: 300.0 mg/kg/injection, schedule: Q04DX003 (ip), vehicle: Klucel (hydroxypropylcellulose) (HPC) 104 % of control
